Experimental data as given in patent US20220073496A1, “NOVEL QUINOLINE DERIVATIVE INHIBITOR” (Nanjing Transthera Biosciences Co., Ltd., priority 2018, published 2022).

Key:
H1299 cell pAxl = target: T1, H1299 cell pAxl (Homo sapiens, UniProt P30530); assay: Inhibitory activity on the cell pAxl (Western Blot); format: cell-based; conditions: H1299 cells, compound 1.1, 3.3, 10, 30 nM, hGAS6 200 ng/mL
T1 construct: endogenous in cells; host or cells: H1299
T1 sequence (P30530 26-894): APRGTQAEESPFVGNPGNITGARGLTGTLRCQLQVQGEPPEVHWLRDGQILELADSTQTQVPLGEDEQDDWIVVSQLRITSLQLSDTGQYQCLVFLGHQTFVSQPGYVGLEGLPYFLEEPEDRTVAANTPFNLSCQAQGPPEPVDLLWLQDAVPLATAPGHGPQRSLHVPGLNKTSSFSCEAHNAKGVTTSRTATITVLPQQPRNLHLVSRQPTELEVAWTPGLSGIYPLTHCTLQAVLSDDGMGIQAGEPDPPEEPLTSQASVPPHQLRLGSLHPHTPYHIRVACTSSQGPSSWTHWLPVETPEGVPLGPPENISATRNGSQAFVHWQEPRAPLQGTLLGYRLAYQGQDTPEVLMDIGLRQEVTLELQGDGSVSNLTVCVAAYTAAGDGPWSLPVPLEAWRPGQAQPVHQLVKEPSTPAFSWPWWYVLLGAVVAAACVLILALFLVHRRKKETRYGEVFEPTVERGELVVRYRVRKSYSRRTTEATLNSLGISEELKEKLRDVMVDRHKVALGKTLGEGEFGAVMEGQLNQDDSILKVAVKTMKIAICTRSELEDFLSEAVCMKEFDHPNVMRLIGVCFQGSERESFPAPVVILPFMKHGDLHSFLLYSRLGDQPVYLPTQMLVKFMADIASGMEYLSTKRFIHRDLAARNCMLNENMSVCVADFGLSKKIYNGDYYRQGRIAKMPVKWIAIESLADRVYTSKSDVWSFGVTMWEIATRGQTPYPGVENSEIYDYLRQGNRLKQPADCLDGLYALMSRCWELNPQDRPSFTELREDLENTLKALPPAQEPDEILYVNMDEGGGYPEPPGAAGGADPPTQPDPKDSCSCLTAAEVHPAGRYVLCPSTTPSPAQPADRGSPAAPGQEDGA
Protocol: Assay 5: Test for Inhibitory Activities of the Compounds of the Present Invention on the Cell pAxl
H1299 is a non-small cell lung cancer cell.
Test substances: the compounds of the present invention, wherein the structures thereof were as described above.
Test equipment: protein electrophoresis apparatus (manufactured by Bio Rad), transfer unit (manufactured by Bio Rad), exposure unit (manufactured by Tanon), CO2, cell incubator (manufactured by Thermo).
The H1299 cells were inoculated in a 6-well plate (containing 10% FBS 1640 medium, 5×10^5 cells per well), and adherent cells were cultivated at 37° C. in a 5% CO2 condition for 18 hours. The cells were starved overnight. Different concentrations of compounds were added. The final compound concentrations were 1.1, 3.3, 10, and 30 nM, and the final DMSO content was 1‰. The negative control wells contained the medium containing 1‰ DMSO. After incubating at 37° C. in a 5% CO2 condition for 60 minutes, hGAS6 (R&D, final concentration 200 ng/mL) was added to each well. After further incubating for 60 minutes, the cell total protein was extracted for Western Blot and the […] values were calculated using GraphPad 5.0 software. The inhibitory activity of the compound on the cell pAxl was examined.

Tyro-3 (h) = target: T2, Tyro-3 (h) (Homo sapiens, UniProt Q06418); assay: Enzymatic activity test, Tyro-3 (h); format: biochemical; conditions: 10 μM [γ-33P]-ATP, 40 minutes, room temperature
T2 construct: purchased
T2 sequence (Q06418 41-890): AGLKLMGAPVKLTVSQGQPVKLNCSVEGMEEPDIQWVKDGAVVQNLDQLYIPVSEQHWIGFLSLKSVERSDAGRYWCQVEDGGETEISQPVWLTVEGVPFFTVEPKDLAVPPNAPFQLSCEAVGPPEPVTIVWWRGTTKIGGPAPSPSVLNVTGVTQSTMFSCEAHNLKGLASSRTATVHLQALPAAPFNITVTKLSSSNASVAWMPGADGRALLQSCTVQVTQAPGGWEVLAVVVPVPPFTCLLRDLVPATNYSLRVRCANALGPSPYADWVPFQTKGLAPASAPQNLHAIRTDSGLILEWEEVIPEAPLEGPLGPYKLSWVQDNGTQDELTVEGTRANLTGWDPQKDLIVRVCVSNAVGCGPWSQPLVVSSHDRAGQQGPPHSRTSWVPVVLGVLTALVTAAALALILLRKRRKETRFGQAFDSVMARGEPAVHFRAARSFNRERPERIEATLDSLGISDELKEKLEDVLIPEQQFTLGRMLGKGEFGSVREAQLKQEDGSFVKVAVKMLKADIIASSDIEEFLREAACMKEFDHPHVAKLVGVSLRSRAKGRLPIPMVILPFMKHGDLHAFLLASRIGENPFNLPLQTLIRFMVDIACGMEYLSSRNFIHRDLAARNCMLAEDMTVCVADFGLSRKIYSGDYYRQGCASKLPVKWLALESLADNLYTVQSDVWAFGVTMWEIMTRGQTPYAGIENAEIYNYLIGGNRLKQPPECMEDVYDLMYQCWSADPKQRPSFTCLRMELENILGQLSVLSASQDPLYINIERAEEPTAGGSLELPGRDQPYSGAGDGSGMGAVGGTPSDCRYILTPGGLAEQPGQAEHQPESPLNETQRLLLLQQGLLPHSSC
Protocol: Assay 3: Enzymatic Activity Test of the Compounds of the Present Invention
Test substances: the compounds of the present invention, wherein the structures and preparations thereof were as described above.
(1) Preparation of the Compound Stock Solution
The compound was dissolved in 100% DMSO to prepare a stock solution with a maximum concentration of 500 μM.
(2) Preparation of the Compound Working Solution
The compound stock solution was diluted to final concentrations of 500, 150, 50, 15, 5, 1.5, 0.5, 0.15 and 0.05 μM to become the compound working solutions (50×).
(3) Preparation of Different Enzyme Reaction Solutions
The Tyro3 (h) enzyme was dissolved in 8 mM MOPS (pH 7.0), 0.2 mM EDTA, 1 mM MnCl2, and 250 μM KVEKIGEGTYGVVYK to prepare an enzyme solution having a final concentration of 38 nM. The enzymatic reaction was activated by using 10 mM magnesium acetate and 10 μM [γ-^33P]-ATP to form an Mg/ATP mixed solution.
In a 384-well plate, the compound working solution was added to final concentrations of 10000, 3000, 1000, 300, 100, 30, 10, 3, and 1 nM. Then different enzyme reaction solutions prepared according to the above conditions were added. The incubation was carried out for 40 minutes at room temperature. The test was terminated by the addition of a 0.5% phosphoric acid solution. 10 μL of the reaction solution was taken and dropped to the P30 filter paper. The filter paper was washed 4 times with 0.425% phosphoric acid solution and once with methanol, and then placed on a scintillation counter. The […] IC50 values were calculated using GraphPad 5.0 software.

Row | SMILES | IC50 (H1299 cell pAxl) [nM] | IC50 (Tyro-3 (h)) [nM]
1 | COc1cc2nccc(Oc3ncc(NC(=O)c4nn(C5CC5)cc(-c5ccc(F)cc5)c4=O)cn3)c2cc1OC [Compound 37, 1-cyclopropyl-N-(2-((6,7-dimethoxyquinolin-4-yl)oxy)pyrimidine-5-yl)-5-para-fluorophenyl-4-oxo-1,4-dihydropyridazine-3-carboxamide] | < 1.1 | 12
2 | COc1cc2nccc(Oc3cnc(NC(=O)c4cn(C5CC5)cc(-c5ccc(F)cc5)c4=O)nc3)c2cc1OC [Compound 32, 1-cyclopropyl-N-(5-((6,7-dimethoxyquinolin-4-yl)oxy)pyrimidine-2-yl)-5-(4-fluorophenyl)-4-oxo-1,4-dihydropyridin-3-carboxamide] | < 1.1 | 11
3 | COc1cc2nccc(Oc3ccc(NC(=O)c4cn(C(C)C)cc(-c5ccc(C)cc5)c4=O)nc3)c2cc1OC [Compound 1, N-(5-((6,7-dimethoxyquinolin-4-yl)oxy)pyridin-2-yl)-1-isopropyl-4-oxo-5-p-tolyl-1,4-dihydropyridin-3-carboxamide] | < 1.1 | 29
4 | COc1cc2nccc(Oc3cnc(NC(=O)c4nn(C5CC5)cc(-c5ccc(F)cc5)c4=O)nc3)c2cc1OC [Compound 33] | < 1.1 | 8
5 | COc1cc2nccc(Oc3ccc(NC(=O)c4nn(C5CC5)cc(-c5ccc(F)cc5)c4=O)nc3)c2cc1OC [Compound 31] | < 1.1 | 7
